The values that follow come from patent publication US20230058557A1, “TRANSPLANTED CELL PROTECTION VIA INHIBITION OF POLYMORPHONUCLEAR CELLS” (The Regents of the University of California, priority 2020, published 2023).

“Also recorded” adds a separate entry of the source. Like-named read-outs stand apart in the source and are kept apart here.

The test system of data set [1] is human PMNs. The class given is cell-based. As for the experimental part: A comprehensive human immune assay was established using the XCelligence in vitro impedance system that obtains real-time kinetics of target cell killing. (ACEA BioSciences, San Diego, Calif., Catalog No. 00380601040). Wild-type (wt) and engineered iPSCs were differentiated into endothelial cells for this assay. […] Some experimental groups were treated with IL-2 (1 ng/ml), which is a central cytokine involved in allograft rejection. The assays were run for a duration of 90 h which is the maximum time period iECs can be cultured in this system before the monolayer breaks down spontaneously.
The immune system not only distinguishes between “self” and “non-self”, but also reacts to “danger” signals: released by autologous cells in distress. Matzinger, Ann. Rev. Immunol. 12:991-1045 (1994), incorporated by reference herein in its entirety. Intracellular components, released by damaged cells, can act as adjuvants and boost immune activation to alarm the immune system of cell death. Because apoptosis activates programmed cell death pathways aimed at digesting intracellular proteins, apoptotic cells are considered weak releasers of danger signals. […] For our in vitro assays, 20,000 target cells were sonicated to disrupt their cell membrane and release DAMPs and the cell debris was added to prior grown and confluent target iEC layer in Xcelligence assays.
Thus, for DAMP-activated XCelligence assays, iECs were plated and in addition to the immune effector cells, 20,000 sonicated target cells were added at the same time. […]
Ligands for CD200R and PIRLα are CD200 and CD99, respectively. Recombinant human CD200 Fc chimera proteins (R&D Systems, Minneapolis, Minn., Catalog no. 2724-CD-050) and CD99 Fc chimera proteins (R&D Systems, Minneapolis, Minn., Catalog no. 3968-CD-050) engage these receptors. These Fc chimera proteins were added to the assays at 10 μg/ml. There is no known ligand for SIRL-1 but there is an activating monoclonal SIRL-1 antibody to trigger downstream inhibitory signaling (Steevels T A., Eur J. Immunol. 43(5):1297-308 (2013)). The human PMNs were activated via DAMPs or IL-2 and the killing of human wt and HIP iECs was assessed (FIG. 8).
BAY 85-8501 was used at 1 nM or 1 μM concentrations. The effector PMNs were stimulated with sonicated cells or IL-2.
Activating receptors include the family of toll-like receptors (TLRs) that are activated by a wide range of ligands including DAMPs. PMN activation pathways were inhibited by TAK-242 (MedChem Express, Monmouth Junction, N.J., Catalog No. HY-11109, 10 μM for in vitro Xcelligence assays), a small-molecule inhibitor of TLR-4-mediated signaling. Wild-type and HIP cells were used on the XCelligence platform using PMNs as effector cells (FIG. 13). Necrotic cells or IL-2 were used as PMN stimulators.

The conditions of data set [2]: in mice; cited from earlier work.
[3] abbreviates: 10 μM, DAMP- or IL-2 activated PMNs.
Where [4] appears, read: PMNs activated via DAMPs (necrotic/sonicated cells), Fc chimera proteins 10 μg/ml.
Setting [5] is: PMNs stimulated with IL-2, Fc chimera proteins 10 μg/ml.

For `CC1=C(C#N)[C@@H](c2ccc(C#N)cc2S(C)(=O)=O)N(C)C(=O)N1c1cccc(C(F)(F)F)c1` [BAY 85-8501], the “PMN killing of wt or HIP target cells” value in data set [1] (1 nM, compared with 1 μM) was “less effective”; in data set [1] (1 μM, PMNs activated via DAMPs from sonicated cells), “fully prevented”; in data set [1] (1 μM, in the presence of IL-2), “further delayed the target cell killing”.
With `COc1cc2c(c(OC)c1OC)-c1ccc(OC)c(=O)cc1[C@@H](NC(C)=O)CC2` [colchicine], the “PMN killing of wt and HIP iECs” value in data set [1] (1 μM monotherapy, DAMP or IL-2 activated PMNs) was “mild inhibitor; also recorded: only marginal efficacy”.
Turning to `CC[C@H](Nc1ncnc2[nH]cnc12)c1nc2cccc(F)c2c(=O)n1-c1ccccc1` [Idelalisib], the “PMN killing of wt and HIP iECs” value in data set [1] (setting [3]) is recorded as “mildly diminished PMN killing”.
On to `CCOC(=O)C1=CCCC[C@H]1S(=O)(=O)Nc1ccc(F)cc1Cl` [TAK-242], for which the “PMN killing of wt and HIP iECs, efficacy by stimulator” value in data set [1] (10 μM, DAMPs compared with IL-2) is recorded as “stronger”. Further, the “PMN killing of wt and HIP iECs” value in data set [1] (10 μM, IL-2) is “still markedly reduced”; in data set [1] (10 μM, necrotic cells (DAMPs) or IL-2 as PMN stimulators) it was “diminished PMN killing”.
For the molecule “A1AT: Alpha-1 antitrypsin, Neutrophil Elastase inhibitor (Sigma-Aldrich A9024)”, the “PMN killing of wt and HIP iECs” value in data set [1] (30 μM recombinant A1AT) was “minorly effective; also recorded: some minor activity against PMN killing”. In data set [2], the “Half-life of A1AT” value was “approx. 4.5 days”.
`COc1cc(C(C)=O)ccc1O` [Apocynin]: the “PMN killing of wt and HIP iECs” value in data set [1] (setting [3]) is “diminished”.

B1: CD200 Fc chimera: Recombinant human CD200 Fc chimera protein (R&D Systems 2724-CD-050), ligand for CD200R (protein)
chain: QVQVVTQDEREQLYTPASLKCSLQNAQEALIVTWQKKKAVSPENMVTFSENHGVVIQPAYKDKINITQLGLQNSTITFWNITLEDEGCYMCLFNTFGFGKISGTACLTVYVQPIVSLHYKFSEDHLNITCSATARPAPMVFWKVPRSGIENSTVTLSHPNGTTSVTSILHIKDPKNQVGKEVICQVLHLGTVTDFKQTVNKG
modifications: left off: a dimerising Fc or GST
notes: Recombinant human CD200 Fc chimera protein (R&D Systems 2724-CD-050), ligand for CD200R
B1: the “PMN killing of wt and HIP iECs” value is listed as “prevented PMN killing” in data set [1] (setting [4]); “somewhat delayed” in data set [1] (setting [5]); “delayed but not prevented” in data set [1] (PMNs stimulated with IL-2, Fc chimera proteins 10 μg/ml, listed as recombinant CD200).

B2: CD99 Fc chimera: Recombinant CD99 Fc chimera protein (R&D Systems 3968-CD-050), ligand for PIRLα (protein)
chain: DGGFDLSDALPDNENKKPTAIPKKPSAGDDFDLGDAVVDGENDDPRPPNPPKPMPNPNPNHPSSSGSFSDADLADGVSGGEGKGGSDGGGSHRKEGEEAD
modifications: left off: a dimerising Fc or GST
notes: Recombinant CD99 Fc chimera protein (R&D Systems 3968-CD-050), ligand for PIRLα
For B2, the “PMN killing of wt and HIP iECs” value was “prevented PMN killing” in data set [1] (setting [4]); “somewhat delayed” in data set [1] (setting [5]); “delayed but not prevented” in data set [1] (PMNs stimulated with IL-2, Fc chimera proteins 10 μg/ml, listed as CD99).
